Data reported in patent publication US6004932A, “Use of glucagon as a metabolic conditioner for dairy cows and other ruminants” (Iowa State University Research Foundation, Inc., priority 1998, dated 1999).

Experiments:
Assay type in all cases: in vivo
[1] = system: early lactation dairy cows; assay: Preliminary data on glucagon doses above 10 mg/day in early lactation dairy cows; conditions: doses of greater than 10 mg/day; inventors' preliminary data
[2] = system: dairy cows; assay: Toxicity observation during glucagon treatment of dairy cows; conditions: treated dairy cows, 10 mg/day
Description: On d 14 postpartum, the SC and the STG groups began the FRBD (feed restriction and 1,3-butanediol in the diet) protocol in which feed intake was restricted to 80% of the average intake for the previous 2 days and 1,3-butanediol (BD) was added, a precursor of ketone bodies, to the ration in increasing quantities either until the cow became ketotic or until 1.4 kg of BD was offered daily. The STG group at 21 days postpartum began to receive a continuous intravenous infusion of 10 mg of glucagon daily, which continued for 14 days. The SC group were infused with saline as a vehicle control. The NC and the NTG groups continued to receive feed for ad libitum intake, but the NTG group received an infusion of glucagon from d 21 to 35 postpartum and the NC group was infused with vehicle control. (The NTG group gave information on how normal early lactation cows respond to 14-day intravenous infusions of glucagon).

[3] = system: multiparous Holstein cows; assay: Effect of glucagon on liver triacylglycerol (lipid) levels of dairy cows, liver biopsies
Description: (§1) Glucagon purified from bovine pancreas, was weighed, dissolved in 0.09% NaCl adjusted to pH 10.5, and diluted so that the amount to be infused daily was contained in 480 ml to allow for an infusion rate of 20 ml/h. All glassware that was to be in contact with glucagon was rinsed with a solution of 1.0% bovine serum albumin to prevent adherence of glucagon to glass surfaces.
The four groups of 10 multiparous Holstein cows per group that were used for the main trial were normal controls (NC), normal cows treated with glucagon (NTG), susceptible controls that should be inducible into ketosis (SC), and susceptible cows treated with glucagon (STG). […]
(§2) A liver biopsy was taken at 7 days postpartum and analyzed immediately for triacylglycerols and glycogen. […]
(§3) On d 14 postpartum, the SC and the STG groups began the FRBD (feed restriction and 1,3-butanediol in the diet) protocol in which feed intake was restricted to 80% of the average intake for the previous 2 days and 1,3-butanediol (BD) was added, a precursor of ketone bodies, to the ration in increasing quantities either until the cow became ketotic or until 1.4 kg of BD was offered daily. […]
(§4) Glycogen and triacylglycerol concentrations of liver samples were determined as described by Mills, S. E. et al., "Characterization of metabolic changes during a protocol for inducing lactation ketosis in dairy cows", J. Dairy Sci. 69:352 (1986a). […]

[4] = system: multiparous Holstein cows; assay: Effect of glucagon on liver glycogen content of dairy cows, liver biopsies; conditions: NTG and STG groups, FIG. 3
Description: as §1
The four groups of 10 multiparous Holstein cows per group that were used for the main trial were normal controls (NC), normal cows treated with glucagon (NTG), susceptible controls that should be inducible into ketosis (SC), and susceptible cows treated with glucagon (STG). The two groups of 10 normal cows were selected from cows that had body condition scores at calving that ranged from 3.2 to 3.8. The two groups of 10 susceptible cows were selected from obese cows that have been fed at 2 times NRC requirements for energy during late lactation and throughout the dry period so they calved at a body condition score of 4.0 to 4.5. […]
as §2, §3
as §4, with “(1986a). Total lipid content was measured as described by Drackley, J. K. et al., "Metabolic changes in blood and liver of dairy cows during feed restriction or administration of 1,3-butanediol", J. Dairy Sci., 74:4254 (1991).” for “(1986a).”

**Q.** Which “incidence of fatty liver at high dose” value [1] does the source give for glucagon here?
**A.** The value was “may actually increase the incidence of fatty liver”.

**Q.** And the “glucagon toxicity in the animals” value [2]?
**A.** The value was “without any indication of glucagon toxicity”.

**Q.** What about the “liver triacylglycerol, covariate adjusted to average d-7 value, normal cows” value ([3]; NTG vs NC, FIG. 2) of the same substance?
**A.** The value was “only a slight difference between the NC and the NTG groups”.

**Q.** And the “change in concentration of lipid in livers of normal cows” value ([3]; normal cows (NTG vs NC), 10 mg/d intravenous infusion d 21-35 postpartum, FIG. 1)?
**A.** The value was “no major decrease”.

**Q.** What about the “liver glycogen content after d 38, before the 42-d biopsy” value ([4]; after termination of infusion) of the same substance?
**A.** The value was “dropped dramatically”.

**Q.** And the “liver glycogen concentration from the 20-d to the 23-d biopsy sample” value ([4]; after infusions began at d 21)?
**A.** The value was “decreased”.

**Q.** What about the “liver glycogen concentration from d 23 up to the d 38 biopsy” value ([4]; d 38 is 3 d after infusions stopped) of the same substance?
**A.** Its value is “increased at a parallel rate”.
